{
  "source": "patent US9968698B2",
  "about": "“Charged singlet-oxygen sensitizers and oppositely-charged surfactants” (STC.UNM, priority 2013, dated 2018)",
  "key": {"[1]": {"test_system": "Staphylococcus aureus (ATCC 10832)", "assay": "Biocidal testing by standard plating (colony counts relative to UVA negative control), Example 1", "format": "cell-based", "settings": "FIG. 4", "procedure": "(§1) All media and buffers were prepared with deionized water with a resistivity of at least 18 MΩ cm. Nutrient broth 234000 (Difco) was prepared according to manufacturer's instructions. Nutrient agar was prepared upon the addition of 8 g/L bacto agar (Difco). Staphylococcus aureus (ATCC 10832) and Escherichia coli (ATCC 29425) were both grown from glycerol-preserved stock which originated from first-generation cultures of original ATCC lyophilates grown in nutrient broth (containing 20% glycerol) and subsequently stored at −70° C. Cells of the aforementioned strains were grown upon the inoculation of glycerol stock on Difco nutrient agar at 37° C. for 24 hours. Cell culture preparation for biocidal testing entailed scraping S. aureus or E. coli colonies off their agar plates and transferring them to nutrient broth for growth. Cells were then incubated in an Orbital Incubator Shaker (American Instruments, Lafayette, Calif.) for 18 h at 37° C. with rapid shaking (250 rpm). Following the incubation period, cells were washed by two 15 min centrifugations at 4,400 rpm; in each case, supernatant was replaced by 30 mL of 0.85% NaCl following pellet formation.\n(§2) The bacterial stock solution was either diluted or concentrated to 2×10^7 cells/mL. Samples were diluted by the addition of 0.85% NaCl, while concentrating the sample entailed centrifugation to pellet the cells, followed by removal of the necessary amount of supernatant and subsequent resuspension of the pellet by vortexing. 500 μL of bacterial solution was added to glass vials with 500 μL of sample solution to reach a final volume of 1 mL prior to analysis. Samples tested contained 10 μM OPE, 40 μM TTAB, or both 10 μM OPE and 40 μM TTAB. Biocidal activity under UVA irradiation was determined using a Luzchem LZC-ORG photoreactor (Luzchem Research, Ontario, Canada). This photoreactor was configured with 10 UVA lamps (0.975 mW/cm^2 over 316-400 nm) with a fan-powered exhaust to keep a stable temperature of 28° C. and a rotating carousel for homogeneous irradiation of samples. Samples exposed in the dark were kept at room temperature, 25° C. 70% Ethanol was used as a positive control, and a 60 minute UVA-irradiated sample of bacteria was used as a negative control.\n(§3) The results of the live/dead assay were verified by confocal fluorescence microscopy using a Zeiss Confocal microscope with an Ar laser (488 nm) and a HeNe laser ([…]) as excitation sources. Standard plating techniques were utilized to validate flow cytometry data. This entailed pipetting and spreading 50 μL aliquots of diluted, unstained sample, onto nutrient agar plates. The plates were incubated at 37° C. for 18 hours, colonies were counted, and viabilities were calculated relative to the UVA negative control. […]"}, "[2]": {"test_system": "Staphylococcus aureus (ATCC 10832)", "assay": "Live/dead flow cytometry biocidal assay, Example 1", "format": "cell-based", "settings": "60 minutes, 10 μM OPE", "procedure": "All media and buffers were prepared with deionized water with a resistivity of at least 18 MΩ cm. Nutrient broth 234000 (Difco) was prepared according to manufacturer's instructions. Nutrient agar was prepared upon the addition of 8 g/L bacto agar (Difco). Staphylococcus aureus (ATCC 10832) and Escherichia coli (ATCC 29425) were both grown from glycerol-preserved stock which originated from first-generation cultures of original ATCC lyophilates grown in nutrient broth (containing 20% glycerol) and subsequently stored at −70° C. Cells of the aforementioned strains were grown upon the inoculation of glycerol stock on Difco nutrient agar at 37° C. for 24 hours. […]\nThe bacterial stock solution was either diluted or concentrated to 2×10^7 cells/mL. […] Biocidal activity under UVA irradiation was determined using a Luzchem LZC-ORG photoreactor (Luzchem Research, Ontario, Canada). […]\nFlow cytometry gating and analysis were carried out as performed in previous studies of biocidal activity of OPEs (see Z. Malik, J. Hanania, Y. Nitzan New trends in photobiology bactericidal effects of photoactivated porphyrins—An alternative approach to antimicrobial drugs, Journal of Photochemistry and Photobiology B: Biology 1990, 5 (3-4), 281-293). […] 100,000 events were recorded in each sample. […]"}, "[3]": {"test_system": "E. coli", "assay": "Confocal fluorescence microscopy of exposed bacteria, Example 2", "format": "cell-based, Escherichia coli", "settings": "UVA, versus untreated cells, FIG. 20"}, "[4]": {"test_system": "S. aureus (ATCC 25923)", "assay": "Live/dead flow cytometry biocidal assay with samples UVA pre-irradiated before bacterial exposure, Example 2", "format": "cell-based, Staphylococcus aureus", "settings": "for biocidal activity vs. S. aureus after pre-irradiation: then 15 minutes UVA with bacteria", "procedure": "(§4) All media and buffers were prepared using deionized water with a resistivity exceeding 18 MΩ*cm. Nutrient Broth 234000 (Difco) was prepared according to manufacturer's instructions, and Nutrient Agar was prepared upon the addition of 8 g/L Bacto agar (Difco). Both S. aureus (ATCC 25923) and E. coli (ATCC 29425) were grown from glycerol-preserved stock. The frozen stock aliquots were generated from first-generation cultures of the original ATCC lyophilate, which were grown in Nutrient Broth containing 20% glycerol, and subsequently stored at −70° C. The cells were grown by inoculating the glycerol stock on Difco Nutrient Agar for 24 hours at 37° Celsius. For biocidal testing, S. aureus and E. coli cells were scraped off the agar plate with a flame-sterilized wire and transferred to nutrient broth. Cells were incubated in an Orbital Incubator Shaker (American Instruments, Lafayette, Calif.) at 37° Celsius in nutrient broth with rapid shaking (250 rpm) for 18 hours. Following the 18-hour incubation period, cells were separated from the nutrient broth by two 15-minute centrifugations at 4,400 rpm, each of which was followed by removal of the supernatant and re-suspension in 30 mL 0.85% NaCl.\nFlow cytometry was implemented to determine the cell concentration of the 0.85% NaCl-suspended bacterial stock solutions. An Accuri C6 flow cytometer (Becton Dickinson, Franklin Lakes, N.J.) equipped with a blue laser that excites at 488 nm was utilized. Two filters were used: a green fluorescence filter (FL-1: 530 nm) and a red fluorescence filter (FL-3: 670 nm long pass). Two thresholds were used, a primary threshold and a secondary threshold. […] Flow cytometer core size in all experiments was 10 μm, with a flow rate of 14 μL/minute. […]\n(§5) The solid compound OPE 1, as a dichloride salt, was dissolved in filtered water with a resistivity of 18 MΩ*cm to a final concentration of 10 μM. […] Progress of the photolysis was monitored by UV-visible absorption spectroscopy with a Molecular Devices Spectramax M5 spectrophotometer (Molecular Devices, Sunnyvale, Calif.). […]"}, "[5]": {"test_system": "S. aureus", "assay": "Confocal microscopy of bacteria irradiated with UVA for 15 minutes, Example 2", "format": "cell-based, Staphylococcus aureus", "settings": "UVA light for 15 minutes, FIG. 22", "procedure": "The solid compound OPE 1, as a dichloride salt, was dissolved in filtered water with a resistivity of 18 MΩ*cm to a final concentration of 10 μM. The solution was then exposed to UVA radiation via a Luzchem LZC-ORG photoreactor (Luzchem Research, Ontario, Canada) in a quartz tube or cuvette. This photoreactor was configured with 10 LZC-UVA lamps (>5.3 mW-cm^−2 over 316-400 nm, Luzchem Research, Ontario, Canada) with a fan-powered exhaust to keep a stable temperature and a carousel for homogeneous irradiation of samples. Progress of the photolysis was monitored by UV-visible absorption spectroscopy with a Molecular Devices Spectramax M5 spectrophotometer (Molecular Devices, Sunnyvale, Calif.). Sodium dodecyl sulfate (SDS) was obtained from Sigma Aldrich. For the OPE 1-SDS complexes, 10 μM OPE 1 was mixed with 40 μM SDS, 0.24% of the critical micelle concentration (CMC). S. aureus samples were exposed to a OPE 1-SDS complex where the concentration of SDS was 0.33 mM, as they were much more resilient to killing caused by SDS. Samples were irradiated for 0, 30, 60, and 120 minutes prior to exposure to bacteria. Once exposed to OPE 1 or 1-SDS complex, E. coli and S. aureus samples were irradiated with UVA in the photoreactor for 30 minutes and 15 minutes, respectively."}, "[6]": {"test_system": "E. coli (ATCC 29425)", "assay": "Live/dead flow cytometry biocidal assay with samples UVA pre-irradiated before bacterial exposure, Example 2", "format": "cell-based, Escherichia coli", "settings": "for biocidal activity vs. E. coli after pre-irradiation: then 30 minutes UVA with bacteria", "procedure": "as §4\nFlow cytometry was implemented to determine the cell concentration of the 0.85% NaCl-suspended bacterial stock solutions. An Accuri C6 flow cytometer (Becton Dickinson, Franklin Lakes, N.J.) equipped with a blue laser that excites at 488 nm was utilized. Two filters were used: a green fluorescence filter (FL-1: 530 nm) and a red fluorescence filter (FL-3: 670 nm long pass). Two thresholds were used, a primary threshold and a secondary threshold. […] Flow cytometer core size in all experiments was 10 μm, with a flow rate of 14 μL/minute. Using these settings, 20 μL of un-stained stock solution was sufficient for identifying the stock concentration of cells.\nFor biocidal testing, the stock solution was either diluted or concentrated to 2×10^7 cells/mL. Equal volumes of the sample and bacterial solution were added to glass tubes prior to analysis. Cells were stained with 5 mM SYTO 21 (live stain; Life Technologies, Grand Island, N.Y.) and […] Propidium iodide (dead stain; Life Technologies, Grand Island, N.Y.) for 15-30 minutes prior to flow cytometry anaylsis. An example of the flow cytometry gating scheme for E. coli is shown below, in FIG. 14. […]\nas §5"}, "[7]": {"settings": "UVA photolysis under the same conditions, without surfactant; cited from earlier work"}, "[8]": {"settings": "in water; cited from earlier work"}, "[9]": {"test_system": "Escherichia coli (ATCC 29425)", "assay": "Biocidal testing by standard plating (colony counts relative to UVA negative control), Example 1", "format": "cell-based", "settings": "40 μM TTAB alone, one hour of exposure, FIG. 5", "procedure": "as §1, §2, §3"}, "[10]": {"test_system": "S. aureus", "settings": "reported value, against S. aureus; cited from earlier work"}, "[11]": {"test_system": "E. coli", "settings": "reported value, against E. coli; cited from earlier work"}, "[12]": {"settings": "10 μM OPE 1, 30 minutes of UVA irradiation prior to bacterial exposure"}, "[13]": {"settings": "10 μM OPE 1, 2 hours of UVA pre-exposure"}, "[14]": {"settings": "0.33 mM SDS alone, control experiment"}},
  "note": "Where “and” joins values, the source holds several entries; their conditions need not be identical. Equal values may be shown once.",
  "data": [
    {"smiles": "O=S(=O)(O)CCCOc1ccc(C#Cc2ccc(C#Cc3ccc(OCCCS(=O)(=O)O)cc3)cc2)cc1", "note": "[OPE]", "values": [
      {"measurement": "S. aureus killed", "setting": "[1]; in the dark, 60 minutes, 10 μM OPE (complex: plus 40 μM TTAB)", "result": 41.3, "unit": "%"},
      {"measurement": "S. aureus killed", "setting": "[1]; in the light (UVA), 60 minutes, 10 μM OPE (complex: plus 40 μM TTAB)", "result": 68.1, "unit": "%"},
      {"measurement": "S. aureus killed (immediate killing by flow cytometry)", "setting": "[2]; in the dark", "result": 23.2, "unit": "%"},
      {"measurement": "S. aureus killed (immediate killing by flow cytometry)", "setting": "[2]; under UVA irradiation", "result": 35.1, "unit": "%"}
    ]},
    {"smiles": "C[N+](C)(C)CCOc1ccc(C#Cc2ccc(C#Cc3ccc(OCC[N+](C)(C)C)cc3)cc2)cc1", "note": "[OPE 1]", "values": [
      {"measurement": "filamentous growth of E. coli (stress response)", "setting": "[3]", "result": "more likely to undergo filamentous growth than untreated cells"},
      {"measurement": "biocidal activity vs. S. aureus after pre-irradiation", "setting": "[4]; [12]", "result": "significant drop in biocidal activity"},
      {"measurement": "biocidal activity vs. S. aureus after pre-irradiation", "setting": "[4]; [13]", "result": "entirely lost"},
      {"measurement": "clustering of S. Aureus (stress response)", "setting": "[5]", "result": "clusters of large numbers of cells"},
      {"measurement": "biocidal activity vs. E. coli after pre-irradiation", "setting": "[6]; [12]", "result": "significant drop in biocidal activity"},
      {"measurement": "biocidal activity vs. E. coli after pre-irradiation", "setting": "[6]; [13]", "result": "nearly lost"},
      {"measurement": "time of photolysis until absorbance diminished and fluorescence completely quenched", "setting": "[7]", "result": "≤ 2", "unit": "min"}
    ]},
    {"smiles": "CCCCCCCCCCCCCC[N+](C)(C)C.[Br-]", "note": "[TTAB, tetradecyl trimethylammonium bromide]", "values": [
      {"measurement": "critical micelle concentration", "setting": "[8]", "result": 4.3, "unit": "mM"},
      {"measurement": "E. coli killed", "setting": "[9]", "result": "56.1% and 56%"},
      {"measurement": "S. aureus killed", "setting": "[1]; 40 μM TTAB alone, one hour of exposure", "result": "8.7% and 9%"},
      {"measurement": "minimum inhibitory concentration", "setting": "[10]", "result": 5, "unit": "mM"},
      {"measurement": "minimum inhibitory concentration", "setting": "[11]", "result": 5, "unit": "mM"}
    ]},
    {"smiles": "CCCCCCCCCCCCOS(=O)(=O)[O-].[Na+]", "note": "[SDS, sodium dodecyl sulfate]", "values": [
      {"measurement": "effect on S. aureus", "setting": "[4]; [14]", "result": "viable"},
      {"measurement": "E. coli cells killed", "setting": "[6]; 40 μM SDS alone, control experiment", "result": "~40", "unit": "%"},
      {"measurement": "effect on E. coli", "setting": "[6]; [14]", "result": "significant killing"},
      {"measurement": "critical micelle concentration", "setting": "[8]", "result": "~8.3", "unit": "mM"}
    ]}
  ]
}
